Test results: article PMC7022392, “Chemoenzymatic Synthesis of Enantiomeric, Bicyclic δ-Halo-γ-lactones with a Cyclohexane Ring, Their Biological Activity and Interaction with Biological Membranes” (Biomolecules, 2020)
Values after ≈ are worked out from the molar mass of the structure shown. Where two headings read alike, the source gives them in different places.

Assays:
[1] = system: Escherichia coli ATCC 25922; experiment: Disc diffusion antimicrobial test; type: cell-based; conditions: includes 6 mm disc, 24 h at 37 °C, racemic compounds
Description: (§1) The antimicrobial activity of racemic halolactones were tested towards three bacterial strains classified as Gram-negative (Escherichia coli ATCC 25922, Pseudomonas aeruginosa ATCC 27853, Proteus mirabilis ATCC […]) and Gram-positive (Bacillus cereus ATCC 10876) and two fungal strains (Candida albicans ATCC 10231 and Aspergillus brasiliensis ATCC 16404). The microorganisms were supplied by Pasteur Institute of Algiers (Algeria).
(§2) The tests were carried out using the disc diffusion method. Briefly, overnight microbial cultures were adjusted to 0.5 MacFarland turbidity standards and spread in Petri dishes containing Mueller–Hinton and Sabouraud media for bacteria and fungi, respectively. The paper discs (6 mm diameter) was sterilized and impregnated with lactone dissolved in DMSO. Then, the discs were placed on the inoculated agar. The negative controls were discs immersed in pure DMSO. The plates were incubated for 24 h at 37 °C (bacteria) and for 48 h at 25 °C (yeast) and 5–7 days for fungi. Then, the inhibition zone diameters were determined in millimeters (including disc diameter of 6 mm). The test was carried out in triplicates.

[2] = system: Bacillus cereus ATCC 10876; experiment: Disc diffusion antimicrobial test; type: cell-based; conditions: includes 6 mm disc, 24 h at 37 °C, racemic compounds
Description: as §1, §2

[3] = system: Proteus mirabilis ATCC 35659; experiment: Disc diffusion antimicrobial test; type: cell-based; conditions: includes 6 mm disc, 24 h at 37 °C, racemic compounds
[4] = system: GL-1 (canine B-cell leukemia); experiment: Antiproliferative activity (formazan viability); type: cell-based; conditions: GL-1 cell line, mean ± SD
Description: (§3) The GL-1 (canine B-cell leukemia) was obtained from Yasuhito Fujino and Hajime Tsujimoto from the Department of Veterinary Internal Medicine University of Tokyo [27], the CLB70 (canine B-cell chronic leukemia) was described earlier by Pawlak et al.. The GL-1 cells were maintained in RPMI 1640 medium with 10% fetal bovine serum (FBS), 100 µg/mL streptomycin, 100 U/mL penicillin and 2 mM L-glutamine (Sigma-Aldrich, Stainheim, Germany). The CLB70 cell line was maintained in Advanced RPMI (Gibco) medium with 100 µg/mL streptomycin, 100 U/mL penicillin and 20% heat-inactivated FBS. Cells were cultured at 37 °C in the incubator with 95% humidified atmosphere and 5% CO2. The antiproliferative activity was tested according to the procedure described previously. The tested lactones were prepared within a concentration range of 6.25–50 µg/mL in the culture medium (DMSO concentration was less than 1% in each dilution). The activity curves used to calculate IC50 are presented in the (Supplementary information Figures S7–S18). The optical density of formed formazan in untreated control cells was assigned as 100%. Viability of test samples was calculated as: % Viability = (average OD for test group/average OD for control group) × 100. The results were determined from more than 3 independent experiments (four wells each) and presented as mean IC50 value ± SD.

[5] = system: CLB70 (canine B-cell chronic leukemia); experiment: Antiproliferative activity (formazan viability); type: cell-based; conditions: mean ± SD
Description: as §3

[6] = Canis lupus familiaris, B-cell, read-out: IC50
[7] = Canis lupus familiaris, CLB70, CLB70 cell line, read-out: IC50

SMILES | diameter of inhibition zone [3] [mm] | IC50 [4, 6] [µg/mL] | IC50 [5, 7] [µg/mL] | melting point [°C] | further results
CC(I)C12CCCCC1CC(=O)O2 (racemic) [rac-6, 1-(1′-Iodoethyl)-9-Oxabicyclo[4.3.0]nonan-8-one] | 11 ± 0.00 | – | – | – | inhibition zone [1]: 7 ± 0.00 mm; inhibition zone [2]: 12 ± 0.00 mm
CC(Br)C12CCCCC1CC(=O)O2 (racemic) [rac-7, 1-(1′-Bromoethyl)-9-Oxabicyclo[4.3.0]nonan-8-one] | 12 ± 0.35 | – | – | – | inhibition zone [1]: 9 ± 0.00 mm; inhibition zone [2]: 8 ± 0.00 mm
C[C@@H](I)[C@]12CCCC[C@H]1CC(=O)O2 [6a, (−)-(1S,6S,1′R)-1-(1′-Iodoethyl)-9-oxabicyclo[4.3.0]nonan-8-one] | – | 13.8 ± 1.08 (≈ 46.8 µM) | 19.6 ± 0.51 (≈ 66.6 µM) | 104 to 107 | –
C[C@H](I)[C@@]12CCCC[C@@H]1CC(=O)O2 [6b, (+)-(1R,6R,1′S)-1-(1′-Iodoethyl)-9-oxabicyclo[4.3.0]nonan-8-one] | – | 14.5 ± 2.38 (≈ 49.4 µM) | 19.93 ± 0.07 (≈ 67.8 µM) | – | –
C[C@@H](Br)[C@]12CCCC[C@H]1CC(=O)O2 [7a, (−)-(1S,6S,1′R)-1-(1′-Bromoethyl)-9-oxabicyclo[4.3.0]nonan-8-one] | – | 15.6 ± 0.79 (≈ 62.9 µM) | 19.4 ± 0.35 (≈ 78.5 µM) | 44 to 48 | –
C[C@H](Br)[C@@]12CCCC[C@@H]1CC(=O)O2 [7b, (+)-(1R,6R,1′S)-1-(1′-Bromoethyl)-9-oxabicyclo[4.3.0]nonan-8-one] | – | 14.9 ± 1.93 (≈ 60.5 µM) | 28.6 ± 4.89 (≈ 116 µM) | – | –
C[C@@H](Cl)[C@]12CCCC[C@H]1CC(=O)O2 [8a, (−)-(1S,6S,1′R)-1-(1′-Chloroethyl)-9-oxabicyclo[4.3.0]nonan-8-one] | – | 17.2 ± 3.62 (≈ 84.7 µM) | 23.9 ± 5.14 (≈ 118 µM) | 37 to 40 | –
C[C@H](Cl)[C@@]12CCCC[C@@H]1CC(=O)O2 [8b, (+)-(1R,6R,1′S)-1-(1′-Chloroethyl)-9-oxabicyclo[4.3.0]nonan-8-one] | – | 18.4 ± 1.46 (≈ 90.9 µM) | 11.4 ± 0.4 (≈ 56.2 µM) | – | IC50 [4]: 11.40 ± 0.40 µg/mL (≈ 56.2 µM); IC50 ([5]; CLB70 cell line): 18.43 ± 1.46 µg/mL (≈ 90.9 µM)
COc1cc([C@@H]2c3cc4c(cc3[C@@H](O[C@@H]3O[C@@H]5CO[C@@H](C)O[C@H]5[C@H](O)[C@H]3O)[C@H]3COC(=O)[C@H]23)OCO4)cc(OC)c1O [Etoposide, reference compound] | – | 4.4 ± 1.14 (≈ 7.48 µM) | 14.3 ± 2.83 (≈ 24.3 µM) | – | –
CC(Cl)C12CCCCC1CC(=O)O2 (centres unmarked) [compound 8, 1-(1′-Chloroethyl)-9-Oxabicyclo[4.3.0]nonan-8-one] | 12 ± 0.00 | – | – | – | –
